# What was measured:
# recombinant GTase A962 = biological target: T1, recombinant GTase A962 (Arabidopsis thaliana, UniProt O82382); assay: Specific activity of recombinant GTase producing O-glucosides against lignin precursors (HPLC); assay type: biochemical; conditions: 30° C.; ND = not detected
# T1 construct: made in house; host or cells: E. coli
# T1 sequence (O82382 1-474): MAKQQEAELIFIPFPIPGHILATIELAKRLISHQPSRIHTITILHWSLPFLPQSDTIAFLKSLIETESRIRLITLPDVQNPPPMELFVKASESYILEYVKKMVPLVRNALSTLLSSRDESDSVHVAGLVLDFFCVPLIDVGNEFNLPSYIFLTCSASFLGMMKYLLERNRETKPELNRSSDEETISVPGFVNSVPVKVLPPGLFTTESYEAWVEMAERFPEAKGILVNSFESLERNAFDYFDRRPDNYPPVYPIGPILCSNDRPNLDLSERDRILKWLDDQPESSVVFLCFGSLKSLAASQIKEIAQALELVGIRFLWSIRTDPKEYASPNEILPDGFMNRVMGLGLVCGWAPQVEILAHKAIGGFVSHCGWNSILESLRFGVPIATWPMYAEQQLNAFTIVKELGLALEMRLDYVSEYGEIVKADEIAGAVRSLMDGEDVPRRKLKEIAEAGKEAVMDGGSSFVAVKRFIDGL
# recombinant GTase A911 = biological target: T2, recombinant GTase A911 (Arabidopsis thaliana, UniProt O22182); assay: Kinetic studies (Michaelis-Menten) on recombinant GTase producing glucose esters; conditions: glucose ester formation
# T2 sequence (O22182 1-456): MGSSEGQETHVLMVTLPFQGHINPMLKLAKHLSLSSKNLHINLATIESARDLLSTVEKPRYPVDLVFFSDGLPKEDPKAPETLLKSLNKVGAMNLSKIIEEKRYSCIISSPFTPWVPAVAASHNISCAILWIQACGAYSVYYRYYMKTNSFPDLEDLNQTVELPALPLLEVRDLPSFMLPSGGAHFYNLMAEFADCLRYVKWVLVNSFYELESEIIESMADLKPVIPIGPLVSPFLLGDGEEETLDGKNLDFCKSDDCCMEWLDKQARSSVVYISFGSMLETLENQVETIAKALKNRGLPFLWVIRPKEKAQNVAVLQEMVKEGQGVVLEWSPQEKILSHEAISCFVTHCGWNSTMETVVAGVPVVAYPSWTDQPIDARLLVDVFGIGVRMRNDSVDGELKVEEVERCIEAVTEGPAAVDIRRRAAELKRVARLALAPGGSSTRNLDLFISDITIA
SMILES,Specific activity of A962 (substrate converted to 4-O-glucoside) (recombinant GTase A962) [nkat/mg],Vmax (A911) (recombinant GTase A911) [nkat/mg]
O=C(O)/C=C/c1ccc(O)cc1 [p-coumaric acid],0.01,–
"COc1cc(/C=C/C(=O)O)ccc1O [Ferulic acid, ferulic acid]",–,6.91

# Reference: US7335814B2, “Transgenic cells expressing glucosyltransferase nucleic acids” (The University of York, priority 2000, dated 2008)
